Measurements: patent US20050130134A1, “Means and methods for monitoring non-nucleoside reverse transcriptase inhibitor antiretroviral therapy and guiding therapeutic decisions in the treatment HIV-AIDS” (ViroLogic, Inc., priority 2000, published 2005)
Values joined by “and” are separate entries in the source; they are usually repeats but may differ in a detail not shown here. Equal values may be shown once. “Also recorded” adds a separate entry of the source.

Legend:
[1] = system: HIV-1 reverse transcriptase V106A + F227L (V106A-F227-RTV); assay: Phenotypic susceptibility assay, site directed mutant V106A-F227-RTV; type: cell-based; conditions: >1 loss of susceptibility
Experimental: (§1) Resistance tests were carried out with resistance test vectors using two host cell types. Resistance test vector viral particles were produced by a first host cell (the resistance test vector host cell) that was prepared by transfecting a packaging host cell with the resistance test vector and the packaging expression vector. The resistance test vector viral particles were then used to infect a second host cell (the target host cell) in which the expression of the indicator gene is measured.
(§2) The resistance test vectors containing a functional luciferase gene cassette were constructed and host cells were transfected with the resistance test vector DNA. The resistant test vectors contained patient-derived reverse transcriptase and protease sequences that were either susceptible or resistant to the antiretroviral agents, such as nucleoside reverse transcriptase inhibitors, non-nucleoside reverse transcriptase inhibitors and protease inhibitors. The resistance test vector viral particles produced by transfecting the resistance test vector DNA into host cells, either in the presence or absence of protease inhibitors, were used to infect target host cells grown either in the absence of NRTI or NNRTI or in the presence of increasing concentrations of the drug. […] The IC50 values were determined by plotting percent drug inhibition vs. log10 drug concentration.
(§3) Host cells were seeded in 10-cm-diameter dishes and were transfected several days after plating with resistance test vector plasmid DNA and the envelope expression vector. […] HIV capsid protein (p24) levels in the harvested cell culture media were determined by an EIA method as described by the manufacturer (SIAC; Frederick, Md.). […] The inhibitory effect of the drug was determined using the following equation: % luciferase inhibition=1-(RLUluc[drug]÷RLUluc)×100 where RLUluc [drug] is the relative light unit of luciferase activity in infected cells in the presence of drug and RLUluc is the Relative Light Unit of luciferase activity in infected cells in the absence of drug. […]

[2] = system: HIV-1 reverse transcriptase F227L (F227L-RTV); assay: Phenotypic susceptibility assay, site directed mutant F227L-RTV; type: cell-based; conditions: >1 loss, <1 increased susceptibility
Experimental: as §1, §2, §3

[3] = system: HIV-1 reverse transcriptase G190S (G190S-RTV); assay: Phenotypic susceptibility assay, site directed mutant G190S-RTV; type: cell-based; conditions: for change in susceptibility: G190S-RTV versus wild type reference RTV; for fold change in susceptibility compared to wild type control RTV: G190S-RTV, >1 loss, <1 increased susceptibility
Experimental: as §1
(§4) The resistance test vectors containing a functional luciferase gene cassette were constructed and host cells were transfected with the resistance test vector DNA. The resistant test vectors contained patient-derived reverse transcriptase and protease sequences that were either susceptible or resistant to the antiretroviral agents, such as nucleoside reverse transcriptase inhibitors, non-nucleoside reverse transcriptase inhibitors and protease inhibitors. The resistance test vector viral particles produced by transfecting the resistance test vector DNA into host cells, either in the presence or absence of protease inhibitors, were used to infect target host cells grown either in the absence of NRTI or NNRTI or in the presence of increasing concentrations of the drug. The amount of luciferase activity produced in infected target host cells in the presence of drug was compared to the amount of luciferase produced in infected target host cells in the absence of drug. Drug resistance was measured as the amount of drug required to inhibit by 50% the luciferase activity detected in the absence of drug (inhibitory concentration 50%, IC50). The IC50 values were determined by plotting percent drug inhibition vs. log10 drug concentration.
Host cells were seeded in 10-cm-diameter dishes and were transfected several days after plating with resistance test vector plasmid DNA and the envelope expression vector. Transfections were performed using a calcium-phosphate precipitation procedure. The cell culture media containing the DNA precipitate was replaced with fresh medium, from one to 24 hours, after transfection. Cell culture media containing resistance test vector viral particles was harvested one to four days after transfection and was passed through a […] filter before being stored at −80° C. HIV capsid protein (p24) levels in the harvested cell culture media were determined by an EIA method as described by the manufacturer (SIAC; Frederick, Md.). Before infection, target cells (293 and 293/T) were plated in cell culture media. Control infections were performed using cell culture media from mock transfections (no DNA) or transfections containing the resistance test vector plasmid DNA without the envelope expression plasmid. One to three or more days after infection the media was removed and cell lysis buffer (Promega) was added to each well. […] The inhibitory effect of the drug was determined using the following equation: % luciferase inhibition=1-(RLUluc[drug]÷RLUluc)×100 where RLUluc [drug] is the relative light unit of luciferase activity in infected cells in the presence of drug and RLUluc is the Relative Light Unit of luciferase activity in infected cells in the absence of drug. IC50 values were obtained from the sigmoidal curves that were generated from the data by plotting the percent inhibition of luciferase activity vs. the log10 drug concentration. […]

[4] = system: HIV-1 reverse transcriptase K101E + G190A (K101E-G190A-RTV); assay: Phenotypic susceptibility assay, site directed mutant K101E-G190A-RTV; type: cell-based; conditions: >1 loss of susceptibility
Experimental: as §1, §2, §3

[5] = system: HIV-1 reverse transcriptase P236L (P236L-RTV); assay: Phenotypic susceptibility assay, site directed mutant P236L-RTV; type: cell-based; conditions: P236L alone versus wild type reference RTV
Experimental: (§5) Transfections were performed using a calcium-phosphate precipitation procedure. […] Cell lysates were assayed for luciferase activity (FIG. 3). […] The drug inhibition curves are shown in (FIG. 3).
Resistance test vectors were constructed containing the P236L mutation alone and in combination with other known drug resistance mutations (K103N, Y181C) that are known to modulate the susceptibility of HIV-1 to NNRTIs. […] The P236L mutation was also introduced into a RTV containing mutations at K103N, Y181C or both (K103N+Y181C).

[6] = system: HIV-1 reverse transcriptase Y181C + F227L (Y181C-F227L-RTV); assay: Phenotypic susceptibility assay, site directed mutant Y181C-F227L-RTV; type: cell-based; conditions: >1 loss, <1 increased susceptibility
Experimental: as §1, §2, §3

[7] = system: HIV-1 reverse transcriptase P225H (P225H-RTV); assay: Phenotypic susceptibility assay, site directed mutant P225H-RTV; type: cell-based; conditions: P225H alone versus wild type control RTV
Experimental: as §5
Resistance test vectors were constructed containing the P225H mutation alone and in combination with other known drug resistance mutations (K103N, Y181C) known to modulate the HIV susceptibility to NNRTIs. […] (Sakar G and Sommar S S (1994) Biotechniques 8(4), 404-407). […] The P225H mutation was also introduced into a RTV containing additional mutations at K103N, Y181C or both (K103N+Y181C).

[8] = system: HIV-1 reverse transcriptase E138A (E138A-RTV); assay: Phenotypic susceptibility assay, site directed mutant E138A-RTV; type: cell-based; conditions: >1 loss of susceptibility
Experimental: as §1, §2, §3

[9] = system: HIV-1 reverse transcriptase K101E + G190S (K101E-G190S-RTV); assay: Phenotypic susceptibility assay, site directed mutant K101E-G190S-RTV; type: cell-based
Experimental: as §1, §4
Host cells were seeded in 10-cm-diameter dishes and were transfected several days after plating with resistance test vector plasmid DNA and the envelope expression vector. Transfections were performed using a calcium-phosphate precipitation procedure. The cell culture media containing the DNA precipitate was replaced with fresh medium, from one to 24 hours, after transfection. Cell culture media containing resistance test vector viral particles was harvested one to four days after transfection and was passed through a […] filter before being stored at −80° C. HIV capsid protein (p24) levels in the harvested cell culture media were determined by an EIA method as described by the manufacturer (SIAC; Frederick, Md.). Before infection, target cells (293 and 293/T) were plated in cell culture media. Control infections were performed using cell culture media from mock transfections (no DNA) or transfections containing the resistance test vector plasmid DNA without the envelope expression plasmid. One to three or more days after infection the media was removed and cell lysis buffer (Promega) was added to each well. […] The inhibitory effect of the drug was determined using the following equation: % luciferase inhibition=1-(RLUluc[drug]÷RLUluc)×100 where RLUluc [drug] is the relative light unit of luciferase activity in infected cells in the presence of drug and RLUluc is the Relative Light Unit of luciferase activity in infected cells in the absence of drug. IC50 values were obtained from the sigmoidal curves that were generated from the data by plotting the percent inhibition of luciferase activity vs. the log10 drug concentration.
Mutations may be incorporated alone and/or in combination with other known drug resistance mutations that are thought to modulate the susceptibility of HIV to a certain drug or class of drugs. Mutations are introduced into the resistance test vector through any of the widely known methods for site-directed mutagenesis. In one embodiment of this invention the mega-primer PCR method for site-directed mutagenesis is used.

[10] = system: RTV-1060 patient virus (RT K101E, G190S); assay: Phenotypic susceptibility assay, RTV-1060 (patient 98-1060); type: cell-based, HIV-1; conditions: >1 decreased susceptibility
Experimental: as §1
The resistance test vectors containing a functional luciferase gene cassette were constructed and host cells were transfected with the resistance test vector DNA. The resistant test vectors contained patient-derived reverse transcriptase and protease sequences that were either susceptible or resistant to the antiretroviral agents, such as nucleoside reverse transcriptase inhibitors, non-nucleoside reverse transcriptase inhibitors and protease inhibitors. […] The IC50 values were determined by plotting percent drug inhibition vs. log10 drug concentration.
as §3
An IC50 was determined for the resistance test vector pool for each drug tested.

[11] = system: HIV-1 reverse transcriptase V106A + V189L (V106A-V189L-RTV); assay: Phenotypic susceptibility assay, site directed mutant V106A-V189L-RTV; type: cell-based; conditions: >1 loss of susceptibility
Experimental: as §1, §2, §3

[12] = system: HIV-1 reverse transcriptase V106A + Y181C + F227L (V106A-Y181C-F227L-RTV); assay: Phenotypic susceptibility assay, site directed mutant V106A-Y181C-F227L-RTV; type: cell-based; conditions: >1 loss of susceptibility
Experimental: as §1, §2, §3

[13] = system: HIV-1 reverse transcriptase V106A + Y181C (V106A-Y181C-RTV); assay: Phenotypic susceptibility assay, site directed mutant V106A-Y181C-RTV; type: cell-based; conditions: >1 loss of susceptibility
Experimental: as §1, §2, §3

[14] = system: HIV-1 reverse transcriptase V108I (V108I-RTV); assay: Phenotypic susceptibility assay, site directed mutant V108I-RTV; type: cell-based; conditions: >1 loss of susceptibility
Experimental: as §1, §2, §3

[15] = system: HIV-1 reverse transcriptase Y188L (Y188L-RTV); assay: Phenotypic susceptibility assay, site directed mutant Y188L-RTV; type: cell-based; conditions: >1 loss of susceptibility
Experimental: as §1, §2, §3

[16] = >1 loss, <1 increased susceptibility

Structure (SMILES): CC(C)Nc1cccnc1N1CCN(C(=O)c2cc3cc(NS(C)(=O)=O)ccc3[nH]2)CC1 [delavirdine]
- fold change in susceptibility compared to wild type control RTV [1]: 3 fold
- fold change in susceptibility compared to wild type control RTV [2]: 0.03 fold
- change in susceptibility [3]: slightly more susceptible; also recorded: increase; also recorded: slightly increase susceptibility
- fold change in susceptibility compared to wild type control RTV [3]: 0.5 fold
- fold change in susceptibility compared to wild type control RTV [4]: 2 fold
- change in susceptibility [5]: less susceptible; also recorded: significant reduction
- fold change in susceptibility compared to wild type control RTV [6]: 0.89 fold
- change in susceptibility [7]: more susceptible; also recorded: increase; also recorded: increases susceptibility
- fold change in susceptibility compared to wild type control RTV [8]: 1.6 fold
- fold change in susceptibility compared to wild type control RTV ([9]; >1 loss of susceptibility): 1.4 fold
- fold change in susceptibility compared to wild type control RTV [9, 16]: 0.5 fold
- fold change in susceptibility [10]: 1.5 fold
- fold change in susceptibility compared to wild type control RTV [11]: 3 fold
- fold change in susceptibility compared to wild type control RTV [12]: 50 fold
- fold change in susceptibility compared to wild type control RTV [13]: 100 fold
- fold change in susceptibility compared to wild type control RTV [14]: 1.3 fold
- fold change in susceptibility compared to wild type control RTV [15]: 9 fold

Structure (SMILES): O=C1Nc2ccc(Cl)cc2[C@@](C#CC2CC2)(C(F)(F)F)O1 [efavirenz]
- fold change in susceptibility compared to wild type control RTV [1]: 8 fold
- fold change in susceptibility compared to wild type control RTV [2]: 0.48 fold
- fold change in susceptibility compared to wild type control RTV [3]: 8 fold
- fold change in susceptibility compared to wild type control RTV [4]: 120 fold
- change in susceptibility [5]: no effect
- fold change in susceptibility compared to wild type control RTV [6]: 0.99 fold
- change in susceptibility [7]: little or no change
- fold change in susceptibility compared to wild type control RTV [8]: 1.4 fold
- fold change in susceptibility compared to wild type control RTV ([9]; >1 loss of susceptibility): greater than 250 fold
- fold change in susceptibility compared to wild type control RTV [9, 16]: 7.6 fold
- fold change in susceptibility [10]: 900 fold
- fold change in susceptibility compared to wild type control RTV [11]: 1 fold
- fold change in susceptibility compared to wild type control RTV [12]: 12 fold
- fold change in susceptibility compared to wild type control RTV [13]: 4 fold
- fold change in susceptibility compared to wild type control RTV [14]: 1.7 fold
- fold change in susceptibility compared to wild type control RTV [15]: 109 fold and 110 fold

Structure (SMILES): Cc1ccnc2c1NC(=O)c1cccnc1N2C1CC1 [nevirapine]
- fold change in susceptibility compared to wild type control RTV [1]: greater than 800 fold
- fold change in susceptibility compared to wild type control RTV [2]: 3 fold
- change in susceptibility [3]: markedly less susceptible; also recorded: decrease; also recorded: greatly reduce susceptibility
- fold change in susceptibility compared to wild type control RTV [3]: 75 fold
- fold change in susceptibility compared to wild type control RTV [4]: greater than 800 fold
- change in susceptibility [5]: no significant change; also recorded: little or no reduction
- fold change in susceptibility compared to wild type control RTV [6]: 285 fold
- change in susceptibility [7]: No significant change; also recorded: little or no change
- fold change in susceptibility compared to wild type control RTV [8]: 1.3 fold
- fold change in susceptibility compared to wild type control RTV ([9]; >1 loss of susceptibility): greater than 800 fold
- fold change in susceptibility compared to wild type control RTV [9, 16]: 75 fold
- fold change in susceptibility [10]: greater than 800 fold
- fold change in susceptibility compared to wild type control RTV [11]: 50 fold
- fold change in susceptibility compared to wild type control RTV [12]: greater than 800 fold
- fold change in susceptibility compared to wild type control RTV [13]: greater than 800 fold
- fold change in susceptibility compared to wild type control RTV [14]: 3 fold
- fold change in susceptibility compared to wild type control RTV [15]: greater than 800 fold
